For one data set, the system named is KB cells. In words: Cancer cell proliferation activities, growth inhibition of KB cells (XTT assay). Type of data set: cell-based. The following applies: Homo sapiens, 72 h. Here is the method:
Cancer Cell Proliferation Activities
As KB cells derived from a human mouth cancer, those purchased from Dainippon Pharmaceutical Co., Ltd. and stored in a lyophilized from at the Research Institute of that company was used. In Dulbecco's modified Eargle's medium containing 10% fetal bovine serum (product of NISSUI PHARMACEUTICAL CO., LTD.), the KB cells were cultured and maintained under the conditions of 5%, CO2 -air and 37° C.
Each compound was used by dissolving it at a concentration of 10 mg/ml in DMSO.
On Day-1, cells which were in a logarithmic growth phase were inoculated at 2,000 cells/100 μl/well on 96-well microtiter plates (Falcon #3072) by using a phenol-red-free culture medium with 10% fetal bovine serum contained therein (Dulbecco's modified Eargle's medium (Sigma)), and were cultured overnight. On Day 0, the compounds each of which had been diluted to 0.03 to 10,000 ng/ml with the same culture medium were added in 100 μl aliquots to the individual wells, and the cells were cultured for 3 days. Three wells were used per each drug concentration. Each plate was provided with three blank wells containing only the culture medium and also with eight wells as a drug-untreated control.
Upon use, XTT (Sigma) was dissolved at a concentration of 1 mg/ml in each culture medium which was free of serum. Phenodin methosulfate (Sigma) dissolved at a concentration of 5 mM in PBS was added to the resulting solution at a volume ratio of 1/200. To each well, the solution so prepared was added in an amount of 50 μl per well. Subsequent to culture for 4 hours, OD was measured at 450 nm by ELISA.
Calculation of 50% Growth Inhibitory Concentration (GI50)
GI50 was calculated by interpolation from a concentration-growth inhibition rate (GIR). GIR was determined in accordance with the following formula: [formula]

Data set [1] in a line: Solubility test in water of taxane derivatives (HPLC). The following applies: for Dissolved amount (Y): purified water + 0.1N hydrochloric acid (1.05 eq.), room temperature, 2 hours, HPLC; for solubility: water; for solubility at 2 h: water + 0.1n hcl. Here is the method:
I) Measurement of the solubility of the compound (b)
1) Preparation of a calibration curve
The compound (b) was weighed in an amount of 1.19 mg, to which 1.19 ml of acetonitrile was added so that the compound was dissolved to provide a standard solution. Using a 10 μl portion of the standard solution, the test was conducted by HPLC (operation conditions 1). […] The peak area obtained as an average of three measurements was plotted against the amount (10.0 μg) of the compound (b) per 10 μl, whereby a calibration curve was prepared.
Calibration curve: Y=2.08×10^-5 X [X: peak area, Y: amount (μg) of the compound (b)]
[HPLC operation conditions 1]
Column: Inertsil ODS-2 (5-250), 40 deg.
Mobile phase: 0.01M KH2 PO4 --CH3 CN (3:2)
Detection: Ultraviolet absorption photometer (225 nm), 0.2 aufs.
2) Solubility test of the compound (b)
(§1) The compound (b) was weighed in an amount of 4.0 mg and then suspended in 2.0 ml of purified water. To the resulting suspension, 45 μl (1.05 eq.) of 0.1N hydrochloric acid was added. By ultrasonication, the resulting mixture was formed into a uniform suspension, which was then shaken at room temperature for 2 hours. The thus-obtained mixture was filtered through a membrane filter (0.22 μm), and the filtrate was provided as a test solution. Using the resulting test solution, the test was conducted by HPLC (operation conditions 1). From the area obtained as an average of three measurements, the solubility of the compound (b) was determined.
II) Measurement of the solubility of the compound (j)
The compound (j) was weighed in an amount of 0.94 mg, to which 0.94 ml of acetonitrile was added so that the compound was dissolved to provide a standard solution. Using a 10 μl portion of the standard solution, the test was conducted by HPLC (operation conditions 1). […] The area obtained as an average of three measurements was plotted against the amount (10.0 μg) of the compound (j) per 10 μl, whereby a calibration curve was prepared.
Calibration curve: Y=2.02×10^-5 X [X: peak area, Y: amount (μg) of the compound (j)]
2) Solubility test of the compound (j)
as §1, with “(j)” for “(b)”, “4.24” for “4.0”, “46” for “45”

Data set [2] concerns ovarian cancer and breast cancer. As to conditions: Ann. int. Med. 111, 273, 1989; cited from earlier work.
The conditions of data set [3]: background statement on Taxol; cited from earlier work.

Converted amounts (≈) assume the structure as drawn. Where two headings read alike, the source gives them in different places.

Take `CCN1CCN(C(=O)OC2C(=O)C3(C)C(O)CC4OCC4(OC(C)=O)C3C(OC(=O)c3ccccc3)C3(O)CC(OC(=O)C(O)C(NC(=O)OC4CCCC4)c4ccccc4)C(C)=C2C3(C)C)CC1` (stereo not drawn) [Compound j, 13-O-(3-Cyclopentyloxycarbonylamino-2-hydroxy-3-phenylpropionyl)-10-O-(4-ethylpiperazinocarbonyl)-10-deacetylbaccatin III]: the GI50 in the data set with KB cells (KB) worked out at 0.58 ng/mL (≈ 0.000604 µM). For the same compound, in data set [1], the “Dissolved amount (Y)” value is 9.20 μg/5 μl, the solubility amounted to 1840 µg/mL (≈ 1920 µM) and the solubility at 2 h is 1840 µg/mL.

In the data set with KB cells (KB), `CC(=O)O[C@H]1C(=O)[C@@]2(C)[C@H]([C@H](OC(=O)c3ccccc3)[C@]3(O)C[C@H](OC(=O)[C@H](O)[C@@H](NC(=O)c4ccccc4)c4ccccc4)C(C)=C1C3(C)C)[C@]1(OC(C)=O)CO[C@@H]1C[C@@H]2O` [Taxol, reference compound] gave a GI50 of 1.3 ng/mL (≈ 0.00152 µM). For the same compound, the “efficacy against ovarian cancer and breast cancer” value in data set [2] is “high efficacy against ovarian cancer and breast cancer”. In data set [1], this compound yielded a solubility of 0.4 µg/mL (≈ 0.468 µM). Also, the “solubility in water (in words)” value in data set [3] is “sparingly soluble in water”.

As for `CC(=O)OC12COC1CC(O)C1(C)C(=O)C(OC(=O)N3CCN(C)CC3)C3=C(C)C(OC(=O)C(O)C(NC(=O)c4ccco4)c4ccccc4)CC(O)(C(OC(=O)c4ccccc4)C21)C3(C)C` (stereo not drawn) [Compound b, 13-O-[3-(2-Furoylamino)-2-hydroxy-3-phenylpropionyl]-10-O-(4-methylpiperazinocarbonyl)-10-deacetylbaccatin III], the 50% growth inhibitory concentration (GI50) with KB cells (KB cells, 3 days, XTT, read-out: GI50) turned out to be 1.4 ng/mL (≈ 0.00151 µM). Besides, in data set [1], the “Dissolved amount (Y)” value was 9.98 μg/5 μl, the concentration in solution (solubility) was 2000 µg/mL (≈ 2160 µM) and the solubility at 2 h is 2000 µg/mL.

For orientation: GI50 means the concentration at which growth is held to half of that of the control. One may read the solubility as the concentration that dissolves in the medium under given conditions.

These data come from patent US6136808A, “Taxane derivatives” (Kabushiki Kaisha Yakult Honsha, priority 1997, dated 2000).
